Target: T1, Gc4EO (Gulosibacter chungangensis, UniProt A0A7J5BGR1)
T1 sequence (A0A7J5BGR1 1-529): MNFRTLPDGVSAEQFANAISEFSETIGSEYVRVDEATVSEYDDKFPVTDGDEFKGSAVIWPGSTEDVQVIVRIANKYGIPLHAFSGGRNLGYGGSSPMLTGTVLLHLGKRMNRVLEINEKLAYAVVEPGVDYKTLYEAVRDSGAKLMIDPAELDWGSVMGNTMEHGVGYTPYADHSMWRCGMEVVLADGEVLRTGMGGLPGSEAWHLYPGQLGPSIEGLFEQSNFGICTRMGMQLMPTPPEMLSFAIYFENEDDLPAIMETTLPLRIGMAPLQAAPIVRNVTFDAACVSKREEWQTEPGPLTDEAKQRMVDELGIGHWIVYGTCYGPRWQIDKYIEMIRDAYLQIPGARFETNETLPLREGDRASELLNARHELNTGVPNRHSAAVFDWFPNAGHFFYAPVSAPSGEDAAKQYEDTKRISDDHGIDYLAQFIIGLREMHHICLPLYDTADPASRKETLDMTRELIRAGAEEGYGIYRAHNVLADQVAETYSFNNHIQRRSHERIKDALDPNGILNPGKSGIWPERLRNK
Test: X-ray crystal structure, […] Å
Assay type: binding
Details: covalent; C8M of FAD to His395; pH 8.0 crystals

**Q.** `Cc1cc2nc3c(=O)[nH]c(=O)nc-3n(C[C@H](O)[C@H](O)[C@H](O)COP(=O)(O)OP(=O)(O)OC[C@H]3O[C@@H](n4cnc5c(N)ncnc54)[C@H](O)[C@@H]3O)c2cc1C` [FAD] was tested. Which “X-ray crystal structure, 1.7 Å” value did it give?
**A.** The value was “showing the covalent bond between the C8 M of FAD and His395”.

From PMC9293466 (Chembiochem, 2021)
